# Values of other authors, collected in patent US20260096996A1, “PHARMACEUTICAL COMPOSITIONS OF TRETINOIN AND METHODS OF PRODUCING SUCH COMPOSITIONS” (Douglas Pharmaceuticals Limited, priority 2022, published 2026).
# How the values were obtained:
# [1] = patients treated for APL
structure (smiles),measurement,setting,value
"CC1=C(/C=C/C(C)=C/C=C/C(C)=C/C(=O)O)C(C)(C)CCC1 [tretinoin, all-trans retinoic acid]",absolute bioavailability,in vivo,approximately 50%
same,administered radiolabel recovered in the urine,"orally administered, human",approximately two-thirds
same,radioactivity recovered in the urine,"within 72 hours, radiolabeled tretinoin 2.75 mg and 50 mg",approximately 63%
same,radioactivity appeared in the feces,"within 6 days, radiolabeled tretinoin 2.75 mg and 50 mg",31%
same,patients experiencing nausea and vomiting,[1],More than half
